Measured values taken from patent US20200165653A1, “METHOD OF MEASURING FLUID SECRETION FUNCTION OF EPITHELIAL CELLS” (NATIONAL UNIVERSITY CORPORATION TOKYO MEDICAL AND DENTAL …, priority 2017, published 2020).
Counter-ions that a name gives are not always drawn. No end group written: not given here.

Tests used:
[1] = test system: human jejunum-derived organoids; test: Organoid swelling response quantified by cross-sectional area with 3D-scanning system; format: cell-based; details: for dose-response curve profile of swelling: human jejunal organoid, FIG. 12
Experimental: The organoid cross-sectional area was measured using a 3D-Scanning System (Cell3 […], Screen Holdings, Kyoto, Japan) as the image analysis device 100. […] After the passage of a preliminary culture process of leaving for 24 hours after seeding, scanning was then performed both before and 30 min after the addition of the reagent subject to analysis. An image was acquired during scanning in auto-focus (AF) mode. The analysis parameters summarized in following Table 1 were set and the cross-sectional area of recognized organoids measured automatically. Note that changes over time due to the addition of a reagent subjected to analysis can be observed in the following manner. Namely, an object is imaged at time (T0) prior to adding a reagent subjected to analysis (T0 imaging process). Then the same object is imaged at time (TN) when a prescribed time (30 minutes, for example) has elapsed since adding the reagent subjected to analysis. Determination is then made as to whether or not the object is an object subjected to analysis. By performing the selection process and the determination process, the change over time observations are only made for objects determined be subjected to analysis thereby at both time T0 and time TN. Then in an area change calculation process, an area (A0) at time T0 and an area (AN) at time TN are calculated for the objects subject to analysis. The change over time (%) based thereon can be found, for example, using the following formula. (AN-A0)/A0×100 Using forskolin-induced swelling as a positive control, testing was next performed so see if such a swelling response could be quantified using the 3D-scanning system described. To optimize the quantification efficiency and accuracy, organoids were subjected to analysis after performing the preliminary culture process at one day after the last passage. This was done since the organoids generally held their cystic shape at this time point. The thresholds to recognize cross-section borders of each organoid were then optimized as set out in Table 1. Thus utilizing the fluid secretion function measurement method of the present embodiment enables drug response screening to be performed at the same time as determining the dose-dependency curves of a limited number of test reagents. Whether or not the present system could determine the dose-dependency curves of forskolin was thereby tested. The dose-dependency curve for forskolin-induced swelling when using a human jejunum-derived organoids was thereby found to be expressed by a standard sigmoid shaped curve, with the log EC50 value thereof calculated as -7.58 (FIG. 10).

[2] = test system: human intestinal organoids; test: Organoid swelling observed by phase contrast / time-lapse imaging; format: cell-based; details: for increase in cross-sectional area of organoids: 60 min after induction, same mediator concentrations as FIG. 11; for swelling response induced by endogenous mediator: PGE2 10^−8 M, VIP 10^−7 M, ACh 10^−3 M, histamine 10^−3 M, bradykinin 10^−5 M, serotonin 10^−3 M, up to 60 min after induction
Experimental: The phase contrast images illustrated are prior to swelling induction and 60 minutes after swelling induction. Scale-bar: 100 μm. Induction was by the addition to a culture medium of: PGE2 (10^−8 M, (A)), VIP (10^−7 M, (B)), ACh (10^−3 M, (C)), histamine (10^−3 M, (D)), bradykinin (10^−5 M, (E)), and serotonin (10^−3 M, (F)).
Examination of Endogenous Mediator Candidates for Anion/Fluid Secretion Next, the fluid secretion function measurement method of the present embodiment was employed to examine the direct effect of various endogenous mediators that might possibly induce anion/fluid secretion from intestinal epithelial cells by testing six types of endogenous mediators to determine if they had the capability to induce a swelling response in organoids equivalent to that of forskolin-induced swelling.

Compound | dose-response curve profile of swelling [1] | increase in cross-sectional area of organoids [2] | swelling response induced by endogenous mediator [2] | time of continuous linear swelling response after stimulation ([1]; forskolin 10^−5 M, observed up to 240 min, area change calculation) | EC50 ([1]; human small intestinal (jejunum-derived) organoids, sigmoid dose-dependency curve, average of at least three independent tests, value is log EC50, read-out: log EC50 of forskolin-induced swelling (converted)) [nM] | time for which swelling continued ([2]; small intestinal organoids, forskolin 10^−5 M)
CCCCC[C@H](O)/C=C/[C@H]1[C@H](O)CC(=O)[C@@H]1C/C=C\CCCC(=O)O [PGE2, prostaglandin E2] | clear sigmoid-shaped response curve | large overall increase | rapid and continuous response | – | – | –
vasoactive intestinal polypeptide (HSDAVFTDNYTRLRKQMAVKKYLNSILN; ends and bridges not checked; UniProt P01282 125-152, looked up) [VIP, endogenous mediator acting through Gs-coupled receptors] | clear sigmoid-shaped response curve | large overall increase | rapid and continuous response | – | – | –
NCCc1c[nH]cn1 [histamine] | markedly lower response profile | smaller than for PGE2 or VIP | slow and limited response | – | – | –
C=C[C@@]1(C)CC(=O)[C@]2(O)[C@@]3(C)[C@@H](O)CCC(C)(C)[C@@H]3[C@H](O)[C@H](OC(C)=O)[C@@]2(C)O1 [forskolin] | – | – | – | up to 30 min | 26.3 | at least 60 min
NCCc1c[nH]c2ccc(O)cc12 [serotonin, serotonin hydrochloride] | – | – | did not exhibit a clear effect | – | – | –
